Results taken from paper PMC5218480 (PLoS ONE, 2017).

Test system: MV-4-11 cells
Assay: Gene expression microarray analysis (Affymetrix PrimeView) and GSEA
Format: cell-based, human
Design: RFU PODN (11730768_x_at) / Fold change /veh PODN (11730768_x_at) / RFU LINC00158 (11744669_a_at) / Fold change /veh LINC00158 (11744669_a_at) / RFU DUSP10 (11751237_a_at) / Fold change /veh DUSP10 (11751237_a_at) / RFU ID3 (11757404_x_at) / Fold change /veh ID3 (11757404_x_at) / RFU PLEKHG5 (11737974_s_at) / Fold change /veh PLEKHG5 (11737974_s_at) / RFU LRRC4B (11730491_at) / Fold change /veh LRRC4B (11730491_at) / RFU GIMAP4 (11747438_a_at) / Fold change /veh GIMAP4 (11747438_a_at) / RFU KRT8 (11758183_x_at) / Fold change /veh KRT8 (11758183_x_at) / RFU CNN1 (11734310_a_at) / Fold change /veh CNN1 (11734310_a_at) / RFU VPS37D (11726825_at) / Fold change /veh VPS37D (11726825_at) / RFU C10orf10 (11716522_x_at) / Fold change /veh C10orf10 (11716522_x_at) / RFU KIR2DL2 /// KIR2DL4 /// KIR2DL5A /// KIR2DL5B /// KIR2DS1 /// KIR2DS2 /// KIR2DS3 /// KIR2DS4 /// KIR3DL3 /// KIR3DL3 /// KIR3DS1 (11738374_at) / Fold change /veh KIR2DL2 /// KIR2DL4 /// KIR2DL5A /// KIR2DL5B /// KIR2DS1 /// KIR2DS2 /// KIR2DS3 /// KIR2DS4 /// KIR3DL3 /// KIR3DL3 /// KIR3DS1 (11738374_at) / RFU C1QL1 (11718748_at) / Fold change /veh C1QL1 (11718748_at) / RFU TMPRSS4 (11747572_a_at) / Fold change /veh TMPRSS4 (11747572_a_at) / RFU HAMP (11756126_x_at) / Fold change /veh HAMP (11756126_x_at) / RFU RNFT2 (11725882_a_at) / Fold change /veh RNFT2 (11725882_a_at) / RFU NR4A2 (11747474_a_at) / Fold change /veh NR4A2 (11747474_a_at) / RFU ABCC12 (11746883_a_at) / Fold change /veh ABCC12 (11746883_a_at) / RFU TMEM136 (11760407_x_at) / Fold change /veh TMEM136 (11760407_x_at) / RFU CLDN22 /// WWC2 (11732394_at) / Fold change /veh CLDN22 /// WWC2 (11732394_at) / RFU HLA-DPB1 (11760878_x_at) / Fold change /veh HLA-DPB1 (11760878_x_at) / RFU SPINT1 (11716480_a_at) / Fold change /veh SPINT1 (11716480_a_at) / RFU GAP43 (11754022_s_at) / Fold change /veh GAP43 (11754022_s_at) / RFU A4GNT (11735810_at) / Fold change /veh A4GNT (11735810_at) / RFU PRB3 (11715151_x_at) / Fold change /veh PRB3 (11715151_x_at) / RFU TUBB4B (11761932_at) / Fold change /veh TUBB4B (11761932_at) / RFU CAPN14 (11732068_a_at) / Fold change /veh CAPN14 (11732068_a_at) / RFU TMCC2 (11721928_a_at) / Fold change /veh TMCC2 (11721928_a_at) / RFU IRGQ (11745062_a_at) / Fold change /veh IRGQ (11745062_a_at) / RFU FAM174B (11720279_a_at) / Fold change /veh FAM174B (11720279_a_at) / RFU TMPRSS4 (11748680_a_at) / Fold change /veh TMPRSS4 (11748680_a_at) / RFU FAM212B (11763350_a_at) / Fold change /veh FAM212B (11763350_a_at) / RFU PLEKHG5 (11743358_a_at) / Fold change /veh PLEKHG5 (11743358_a_at) / RFU ZSCAN30 (11745921_a_at) / Fold change /veh ZSCAN30 (11745921_a_at) / RFU CMKLR1 (11741424_a_at) / Fold change /veh CMKLR1 (11741424_a_at) / RFU LOC101060620 /// MAPK8IP1 (11723275_at) / Fold change /veh LOC101060620 /// MAPK8IP1 (11723275_at) / RFU SPTSSB (11747773_x_at) / Fold change /veh SPTSSB (11747773_x_at) / RFU PRSS12 (11739890_at) / Fold change /veh PRSS12 (11739890_at) / RFU BIN1 (11741810_x_at) / Fold change /veh BIN1 (11741810_x_at) / RFU WNT11 (11732464_a_at) / Fold change /veh WNT11 (11732464_a_at) / RFU C10orf10 (11716521_a_at) / Fold change /veh C10orf10 (11716521_a_at) / RFU C5orf56 (11738089_at) / Fold change /veh C5orf56 (11738089_at) / RFU CYB561 (11721691_x_at) / Fold change /veh CYB561 (11721691_x_at) / RFU ANKRD19P (11752326_a_at) / Fold change /veh ANKRD19P (11752326_a_at) / RFU OR2T12 /// OR2T33 /// OR2T8 (11738714_s_at) / Fold change /veh OR2T12 /// OR2T33 /// OR2T8 (11738714_s_at) / RFU VCAN (11748164_a_at) / Fold change /veh VCAN (11748164_a_at) / RFU JSRP1 (11732532_at) / Fold change /veh JSRP1 (11732532_at) / RFU KRTAP10-11 (11738290_x_at) / Fold change /veh KRTAP10-11 (11738290_x_at) / RFU MYO3A (11730013_a_at) / Fold change /veh MYO3A (11730013_a_at) / RFU EBF3 (11725865_a_at) / Fold change /veh EBF3 (11725865_a_at) / RFU CAMK2N1 (11719241_x_at) / Fold change /veh CAMK2N1 (11719241_x_at) / RFU C5orf56 (11738088_a_at) / Fold change /veh C5orf56 (11738088_a_at) / RFU OLFML3 (11715873_a_at) / Fold change /veh OLFML3 (11715873_a_at) / RFU LOC100653217 /// NTM (11731650_a_at) / Fold change /veh LOC100653217 /// NTM (11731650_a_at) / RFU MAPK11 (11762145_a_at) / Fold change /veh MAPK11 (11762145_a_at) / RFU FIZ1 (11724087_x_at) / Fold change /veh FIZ1 (11724087_x_at) / RFU OASL (11726364_x_at) / Fold change /veh OASL (11726364_x_at) / RFU SOX15 (11748057_x_at) / Fold change /veh SOX15 (11748057_x_at) / RFU CD79A (11719716_a_at) / Fold change /veh CD79A (11719716_a_at) / RFU HIST1H1D (11736915_at) / Fold change /veh HIST1H1D (11736915_at) / RFU CASKIN2 (11723855_a_at) / Fold change /veh CASKIN2 (11723855_a_at) / RFU LOC730098 (11760151_x_at) / Fold change /veh LOC730098 (11760151_x_at) / RFU OR4N2 (11742367_at) / Fold change /veh OR4N2 (11742367_at) / RFU PRRT2 (11749266_a_at) / Fold change /veh PRRT2 (11749266_a_at) / RFU SNX32 (11753110_a_at) / Fold change /veh SNX32 (11753110_a_at) / RFU CDHR5 (11726645_a_at) / Fold change /veh CDHR5 (11726645_a_at) / RFU RCAN1 (11760418_a_at) / Fold change /veh RCAN1 (11760418_a_at) / RFU FAM167A (11723789_a_at) / Fold change /veh FAM167A (11723789_a_at) / RFU FAM26E (11764081_at) / Fold change /veh FAM26E (11764081_at) / RFU ISYNA1 (11749810_s_at) / Fold change /veh ISYNA1 (11749810_s_at) / RFU ACY1 (11761880_at) / Fold change /veh ACY1 (11761880_at) / RFU 11764098_at / Fold change /veh 11764098_at / RFU SAMD14 (11745864_x_at) / Fold change /veh SAMD14 (11745864_x_at) / RFU NPB (11741838_a_at) / Fold change /veh NPB (11741838_a_at) / RFU TMPRSS6 (11731388_a_at) / Fold change /veh TMPRSS6 (11731388_a_at) / RFU KRTAP10-2 (11738614_at) / Fold change /veh KRTAP10-2 (11738614_at) / RFU ARHGAP8 /// PRR5-ARHGAP8 (11727945_x_at) / Fold change /veh ARHGAP8 /// PRR5-ARHGAP8 (11727945_x_at) / RFU KRTAP5-7 /// NADSYN1 (11734609_at) / Fold change /veh KRTAP5-7 /// NADSYN1 (11734609_at) / RFU RASL12 (11751679_a_at) / Fold change /veh RASL12 (11751679_a_at) / RFU CDKN2B (11736163_a_at) / Fold change /veh CDKN2B (11736163_a_at) / RFU PRF1 (11729649_at) / Fold change /veh PRF1 (11729649_at) / RFU, ZNF638 /// ZNF638-IT1 / Fold change vs veh, ZNF638 /// ZNF638-IT1 / RFU, PANK3 / Fold change vs veh, PANK3 / RFU, SH3YL1 / Fold change vs veh, SH3YL1 / RFU, ZEB2 / Fold change vs veh, ZEB2 / RFU, NRIP1 / Fold change vs veh, NRIP1 / RFU, PTTG1IP / Fold change vs veh, PTTG1IP / RFU, CAPN2 / Fold change vs veh, CAPN2 / RFU, MED14 / Fold change vs veh, MED14 / RFU, SNORA58 / Fold change vs veh, SNORA58 / RFU, C1orf63 / Fold change vs veh, C1orf63 / RFU, LRRFIP1 / Fold change vs veh, LRRFIP1 / RFU, NDUFAF7 / Fold change vs veh, NDUFAF7 / RFU, SLC12A2 / Fold change vs veh, SLC12A2 / RFU, IBTK / Fold change vs veh, IBTK / RFU, ESF1 / Fold change vs veh, ESF1 / Fold change vs veh, TMEM50B / RFU, TAOK1 / Fold change vs veh, TAOK1 / RFU, ACBD3 / Fold change vs veh, ACBD3 / RFU, TMA16 / Fold change vs veh, TMA16 / RFU, RWDD3 / Fold change vs veh, RWDD3 / RFU, BCAT1 / Fold change vs veh, BCAT1 / RFU, EDEM3 / Fold change vs veh, EDEM3 / RFU, TMEM33 / Fold change vs veh, TMEM33 / RFU, WDR75 / Fold change vs veh, WDR75 / RFU, AHCTF1 / Fold change vs veh, AHCTF1 / RFU, TFRC / Fold change vs veh, TFRC / RFU, ZDHHC17 / Fold change vs veh, ZDHHC17 / RFU, NOM1 / Fold change vs veh, NOM1 / RFU, ARL8B / Fold change vs veh, ARL8B / RFU, ZBTB11 / Fold change vs veh, ZBTB11 / RFU, TAMM41 / Fold change vs veh, TAMM41 / RFU, KIAA1704 /// LOC100996395 / Fold change vs veh, KIAA1704 /// LOC100996395 / RFU, ING1 / Fold change vs veh, ING1 / RFU, TRMT61B / Fold change vs veh, TRMT61B / RFU, FUBP3 / Fold change vs veh, FUBP3 / RFU, TP53 / Fold change vs veh, TP53 / RFU, TNKS2 / Fold change vs veh, TNKS2 / RFU, ZFP14 / Fold change vs veh, ZFP14 / RFU, ACTR2 / Fold change vs veh, ACTR2 / RFU, PPP3R1 / Fold change vs veh, PPP3R1 / RFU, PIK3R1 / Fold change vs veh, PIK3R1 / RFU, HNRNPA1 / Fold change vs veh, HNRNPA1 / RFU, RNF170 / Fold change vs veh, RNF170 / RFU, ZNF28 / Fold change vs veh, ZNF28 / RFU, RNGTT / Fold change vs veh, RNGTT / RFU, OGT / Fold change vs veh, OGT / RFU, BRD1 / Fold change vs veh, BRD1 / RFU, MARS / Fold change vs veh, MARS / RFU, ZNF655 / Fold change vs veh, ZNF655 / RFU, FAHD1 / Fold change vs veh, FAHD1 / RFU, BDP1 / Fold change vs veh, BDP1 / RFU, LRRCC1 / Fold change vs veh, LRRCC1 / RFU, ARID1A / Fold change vs veh, ARID1A / RFU, ZNF146 / Fold change vs veh, ZNF146 / RFU, ZNF330 / Fold change vs veh, ZNF330 / RFU, GPN3 / Fold change vs veh, GPN3 / RFU, C9orf123 / Fold change vs veh, C9orf123 / RFU, N4BP2L2 / Fold change vs veh, N4BP2L2 / RFU, ARFIP1 / Fold change vs veh, ARFIP1 / RFU, FAM179B / Fold change vs veh, FAM179B / RFU, BCL10 / Fold change vs veh, BCL10 / RFU, UHRF1BP1L / Fold change vs veh, UHRF1BP1L / RFU, BET1 / Fold change vs veh, BET1 / RFU, CNOT2 / Fold change vs veh, CNOT2 / RFU, ZNF268 / Fold change vs veh, ZNF268 / Fold change vs veh, ZNF507 / RFU, DGCR2 / Fold change vs veh, DGCR2 / RFU, WDSUB1 / Fold change vs veh, WDSUB1 / Fold change vs veh, HSP90B1 /// MIR3652 / RFU, ADSS / Fold change vs veh, ADSS / RFU, GK / Fold change vs veh, GK / RFU, ZNF148 / Fold change vs veh, ZNF148 / RFU, TAF9 / Fold change vs veh, TAF9 / RFU, SLC1A5 / Fold change vs veh, SLC1A5 / RFU, SLMO2 / Fold change vs veh, SLMO2 / RFU, ABCC4 / Fold change vs veh, ABCC4 / RFU, LOC101060439 /// RAP1B / Fold change vs veh, LOC101060439 /// RAP1B / RFU, RFX7 / Fold change vs veh, RFX7 / RFU, GTPBP10 / Fold change vs veh, GTPBP10 / RFU, CNEP1R1 / Fold change vs veh, CNEP1R1 / RFU, BIVM-ERCC5 /// ERCC5 / Fold change vs veh, BIVM-ERCC5 /// ERCC5 / RFU, ILF3 / Fold change vs veh, ILF3 / RFU 11762660_at / Fold change /veh 11762660_at / RFU VCAN (11757783_s_at) / Fold change /veh VCAN (11757783_s_at) / RFU DDX43 (11728927_at) / Fold change /veh DDX43 (11728927_at) / RFU KRT8 (11758188_x_at) / Fold change /veh KRT8 (11758188_x_at) / RFU NKD1 (11759106_at) / Fold change /veh NKD1 (11759106_at) / RFU SRD5A1 (11742802_a_at) / Fold change /veh SRD5A1 (11742802_a_at) / RFU TPSAB1 /// TPSB2 (11721975_s_at) / Fold change /veh TPSAB1 /// TPSB2 (11721975_s_at) / RFU GSTM3 (11746129_a_at) / Fold change /veh GSTM3 (11746129_a_at) / RFU IL23R (11737362_x_at) / Fold change /veh IL23R (11737362_x_at) / RFU TMEM51 (11727254_a_at) / Fold change /veh TMEM51 (11727254_a_at) / RFU PIWIL2 (11732686_x_at) / Fold change /veh PIWIL2 (11732686_x_at) / RFU ORM1 (11744905_x_at) / Fold change /veh ORM1 (11744905_x_at) / RFU CCDC152 (11743942_at) / Fold change /veh CCDC152 (11743942_at) / RFU ECM1 (11717891_a_at) / Fold change /veh ECM1 (11717891_a_at) / RFU IL23R (11748794_a_at) / Fold change /veh IL23R (11748794_a_at) / RFU TNFAIP8L3 (11732012_x_at) / Fold change /veh TNFAIP8L3 (11732012_x_at) / RFU MBOAT4 (11741988_at) / Fold change /veh MBOAT4 (11741988_at) / RFU 11764193_at / Fold change /veh 11764193_at / RFU TMEM53 (11763286_at) / Fold change /veh TMEM53 (11763286_at) / RFU MAGEB2 (11727129_at) / Fold change /veh MAGEB2 (11727129_at) / RFU TMEM200A (11744735_a_at) / Fold change /veh TMEM200A (11744735_a_at) / RFU CCDC152 (11751479_a_at) / Fold change /veh CCDC152 (11751479_a_at) / RFU FAM211A (11726209_a_at) / Fold change /veh FAM211A (11726209_a_at) / RFU RGS16 (11746705_a_at) / Fold change /veh RGS16 (11746705_a_at) / RFU VCAN (11755009_s_at) / Fold change /veh VCAN (11755009_s_at) / RFU RHOB (11743442_s_at) / Fold change /veh RHOB (11743442_s_at) / RFU RGS16 (11720943_a_at) / Fold change /veh RGS16 (11720943_a_at) / RFU RGS16 (11720944_at) / Fold change /veh RGS16 (11720944_at) / RFU, VPS4B / Fold change vs veh, VPS4B / RFU, CREB1 / Fold change vs veh, CREB1 / RFU, DNAJC13 / Fold change vs veh, DNAJC13 / RFU, GNAQ / Fold change vs veh, GNAQ / RFU, CDK5R1 / Fold change vs veh, CDK5R1 / RFU, ZRANB3 / Fold change vs veh, ZRANB3 / RFU, CUL4A / Fold change vs veh, CUL4A / RFU, CCNY / Fold change vs veh, CCNY / RFU, UFL1 / Fold change vs veh, UFL1 / RFU, COG3 / Fold change vs veh, COG3 / RFU, DIAPH2 / Fold change vs veh, DIAPH2 / RFU, SKA2 / Fold change vs veh, SKA2 / RFU, AFF3 / Fold change vs veh, AFF3 / RFU, LMF1 / Fold change vs veh, LMF1 / RFU, IPO11 / Fold change vs veh, IPO11 / RFU, DFFB / Fold change vs veh, DFFB / RFU, FOXP1 / Fold change vs veh, FOXP1 / RFU, CARD8 / Fold change vs veh, CARD8 / RFU, STRN3 / Fold change vs veh, STRN3 / RFU, ADK / Fold change vs veh, ADK / RFU, RASSF2 / Fold change vs veh, RASSF2 / RFU, WIPF1 / Fold change vs veh, WIPF1 / RFU, LARP1B / Fold change vs veh, LARP1B / RFU, RASA1 / Fold change vs veh, RASA1 / RFU, RB1 / Fold change vs veh, RB1 / RFU, PPFIA1 / Fold change vs veh, PPFIA1 / RFU, MAT2A / Fold change vs veh, MAT2A / RFU, CCT5 / Fold change vs veh, CCT5 / RFU, WDR92 / Fold change vs veh, WDR92 / RFU, CUX1 / Fold change vs veh, CUX1 / RFU, TTC7A / Fold change vs veh, TTC7A / RFU, TMEM135 / Fold change vs veh, TMEM135 / RFU, DEPTOR / Fold change vs veh, DEPTOR / RFU, CPM / Fold change vs veh, CPM / RFU, DNAJB6 / Fold change vs veh, DNAJB6 / RFU, CACNA2D3 / Fold change vs veh, CACNA2D3 / RFU, DTX4 / Fold change vs veh, DTX4 / RFU, TFCP2 / Fold change vs veh, TFCP2 / RFU, GMCL1 /// GMCL1P1 / Fold change vs veh, GMCL1 /// GMCL1P1 / RFU, AEBP2 / Fold change vs veh, AEBP2 / RFU, SNHG1 /// SNORD22 /// SNORD25 /// SNORD26 /// SNORD27 /// SNORD28 /// SNORD29 /// SNORD31 / Fold change vs veh, SNHG1 /// SNORD22 /// SNORD25 /// SNORD26 /// SNORD27 /// SNORD28 /// SNORD29 /// SNORD31 / Fold change (Aza/veh), C12orf56 (ProbeSet 11735607_a_at) / Fold change (ACY-1035/veh), C12orf56 (ProbeSet 11735607_a_at) / Fold change (Aza/veh), FGFR1OP (ProbeSet 11751329_s_at) / Fold change (ACY-1035/veh), FGFR1OP (ProbeSet 11751329_s_at) / Fold change (Aza/veh), VPS36 (ProbeSet 11739960_a_at) / Fold change (ACY-1035/veh), VPS36 (ProbeSet 11739960_a_at) / RFU SYPL1 (11715823_x_at) / Fold change /veh SYPL1 (11715823_x_at) / RFU IGFBP7 (11715501_s_at) / Fold change /veh IGFBP7 (11715501_s_at) / RFU REEP3 (11722064_at) / Fold change /veh REEP3 (11722064_at) / RFU IGLL1 (11728026_x_at) / Fold change /veh IGLL1 (11728026_x_at): dose or concentration left out as unconfirmed
Settings: MV-4-11 cells, 48 hours

Nc1ccc(-c2cccs2)cc1NC(=O)c1ccc2c(c1)cc(C1CC1)n2CCN1CCOCC1 [ACY-1035]
Fold change /veh OR4N2 (11742367_at): 1.06
